{"source": "patent US7083809B2", "about": "“Purified cytokine inhibitory factor” (Arkion Life Sciences, LLC, priority 2002, dated 2006)", "key": {"murine macrophage": {"system": "murine macrophage", "settings": "cited from earlier work"}, "[1]": {"settings": "20 cancer patients, intravenous pretreatment followed by intravenous endotoxin; cited from earlier work"}, "PGE2 biosynthesis": {"system": "PGE2 biosynthesis", "test": "Inhibition of PGE2 biosynthesis in LPS-stimulated RAW 264.7 cells (EIA)", "assay_type": "cell-based, mouse", "method": "The assay began with overnight induction of COX-2 through mitogenic (LPS) stimulation of RAW 264.7 cell monolayers. The cell monolayers were then exposed to a test article (e.g. indomethacin) for 30 min at 37° C., and then an exogenous source of arachidonic acid was provided to the system. COX1 and COX2 (in addition to a PGE2 specific synthetase) converted the exogenous arachidonic acid to PGE2. Prostaglandin E2 in the culture medium was then quantified by a commercial EIA system. When less PGE2 was recovered from culture medium containing a test article than was recovered from culture medium alone, the condition was labeled inhibition.\nAssay procedure: 5×10^6 Cells in DMEM medium were seeded and incubated in a 37° C., 5% CO2 incubator overnight. At approximately 24 h growth of cells seeded on day 1 (usually 90–100% confluence), growth medium was aseptically decanted and discarded. 10 ml sterile PBSA was gently pipetted into flasks against a non-growth surface, and the cells were washed twice. 10 ml DMEM containing LPS (2 ng/ml) was added to the tested flasks. Flasks were placed in a 37° C., 5% CO2 incubator overnight for 16 h.\nAt 16 h post-initial LPS exposure, growth medium was aseptically removed (suction) and discarded. 10 ml sterile PBSA was gently pipetted into flasks against a non-growth surface, and the cells were washed twice. Cells were incubated in the presence of 2 ml PBSA, 2 ml positive control drugs, or 2 ml yolk lipids sample (1.0 mg/ml) at 37° C. After 30 min incubation, 222 μl of 300 ΞM arachidonic acid was added to every flask. Cells were incubated for an additional 15 min at 37° C. in presence of the 30 μM arachidonic acid. After the 15 min incubation, 50 μl of 1 mg/ml indomethacin was added to contents of flask to stop the reaction. All fluids from flasks were collected into appropriately labeled polypropylene tubes.\nProstaglandin E2 was assayed with the commercial ELISA kit (Amersham RPN222) at room temperature following the standard protocol."}, "TNF-α": {"system": "TNF-α", "test": "LPS-induced cytokine mRNA inhibition assay in THP1 monocytes (RT-PCR)", "assay_type": "cell-based, human", "settings": "THP1 cells, culture medium"}, "IL-1β": {"system": "IL-1β", "test": "LPS-induced cytokine mRNA inhibition assay in THP1 monocytes (RT-PCR)", "assay_type": "cell-based, human", "settings": "THP1 cells"}}, "data": [{"compound": "CCCCCCCCCCCCCC(=O)N[C@H]1[C@H](OC[C@H]2O[C@H](OC(CC(=O)O)CC(=O)O)[C@H](NC(=O)CCCCCCCCCCCCC)[C@@H](OC(=O)CNC(=O)CCCCCCCCCCC)[C@@H]2O)O[C@H](CO)[C@@H](OP(=O)(O)O)[C@@H]1OC(=O)CNC(=O)CCCCCCCCCCC", "note": "[DT-5461a]", "values": [{"measurement": "Induction of TNF-α, IL-1β, IL-6, and GM-CSF", "setting": "murine macrophage", "result": "induces"}]}, {"compound": "CCCCCCCCCCC[C@@H](O)CC(=O)N[C@H]1[C@@H](OP(=O)(O)O)O[C@H](CO)[C@@H](OC(=O)C[C@H](O)CCCCCCCCCCC)[C@@H]1OC(=O)C[C@H](O)CCCCCCCCCCC", "note": "[SDZ MRL 953]", "values": [{"measurement": "Release of TNF-α, IL-1β, IL-8, IL-6, and G-CSF", "setting": "[1]", "result": "markedly reduced"}]}, {"compound": "CC(=O)Oc1ccccc1C(=O)O", "note": "[aspirin]", "values": [{"measurement": "Inhibition of PGE2 biosynthesis in cells (in words)", "setting": "PGE2 biosynthesis", "result": "inhibited"}]}, {"compound": "CC(C)Cc1ccc(C(C)C(=O)O)cc1", "note": "(stereo not shown) [ibuprofen]", "values": [{"measurement": "Inhibition of PGE2 biosynthesis in cells (in words)", "setting": "PGE2 biosynthesis", "result": "inhibited"}]}, {"compound": "COc1ccc2c(c1)c(CC(=O)O)c(C)n2C(=O)c1ccc(Cl)cc1", "note": "[indomethacin]", "values": [{"measurement": "Inhibition of PGE2 biosynthesis in cells (in words)", "setting": "PGE2 biosynthesis", "result": "inhibited"}]}, {"compound": "lipopolysaccharide [LPS]", "values": [{"measurement": "LPS concentration of maximum induction for TNFa", "setting": "TNF-α", "result": "around 0.2 mg/ml"}, {"measurement": "LPS concentration able to induce IL-1b", "setting": "IL-1β", "result": 0.008, "unit": "mg/mL"}]}]}
